What was measured:
[1] = tested on: Primary lung fibroblasts; experiment: Single 24 h exposure of non-senescent lung fibroblasts to PGE2 (accelerated senescence and related inflammation); format: cell-based, human; details: for PGE2-induced SA-β gal and p21 expression: control fibroblasts (NS-C and S-C), antagonists 10 μM; for increase in IL-6, CX3CL1, FGF2, VEGF, MMP2 and TIMP2 induced by PGE2: fibroblasts, EP2 and EP4 antagonists
Description: Primary lung fibroblasts were isolated by the explant technique (Normand J and Karasek M A. In Vitro Cell Dev Biol Anim 1995; 31:447-455) from lung specimens obtained for lung tumor resection from 25 patients with COPD and 35 subjects without clinical, morphological or functional signs of COPD (controls) (Table 1). Controls were divided into non-smoker and smoker groups (NS-C, n=10 and S-C, n=25 respectively). Smoking status (current smokers or ex-smokers, defined by smoking cessation after more than 1 year (Lapperre T S et al., Respir Res 2007; 8:85; Savale L et al. Am J Respir Crit Care Med 2009), was considered in the analysis of the different results (Table 2). Classification of COPD severity was based on the 2003 Global initiative for chronic obstructive lung disease (GOLD) criteria (Rabe K F et al., Am J Respir Crit Care Med 2007; 176:532-555). Informed consent was obtained from all patients and the study was approved by the “Comite de Protection des Personnes Ile de France IX”.
(§1) Fibroblasts were exposed to either PGE2 (0.5 to 50 ng ml^−1) or conditioned medium (CM) collected from fibroblasts incubated for 24 h. In different experiments cells were treated with inhibitors of COXs, agonists or antagonists of prostaglandin receptors EP2 and EP4, the antioxidant N-acetylcysteine (NAC), or the inhibitor of p53 transcriptional effects pifithriñ-α.
(§2) Senescence was characterized by measuring cumulative population doubling levels (PDLs) (Holz O et al., Eur Respir J 2004; 24:575-579), telomere length (Savale L et al., Am J Respir Crit Care Med 2009), senescence associated β-galactosidase activity (SA β-Gal) (Dimri G P. Cancer Cell 2005; 7:505-512), and the expression of phospho (serine 15)-p53 p16, p21, and caspase 3 by western blot, immunofluorecence and RT-qPCR analysis. The level of 29 soluble factors in conditioned medium was quantified using the Luminex technology (Millipore, Molscheim, France).

[2] = tested on: Non-senescent fibroblasts from S-C and COPD patients (target fibroblasts); experiment: Paracrine senescence: target fibroblasts incubated 24 h with conditioned medium (CM) from senescent fibroblasts; format: cell-based, human
Method: as §1, §2
Non-senescent fibroblasts from S-C and COPD patients (further called target fibroblasts) were incubated 24 h with conditioned medium (CM) from cells of the respective groups obtained at non-senescent and senescent passages. […] Both S-C and COPD CM obtained at senescent passage increased the percentage SA-β gal, phospho (serine 15)-p53, p21, and p16 protein expression, as well as IL-6, IL-8, MCP-1 and FGF-2 mRNA expression in target cells.

[3] = tested on: fibroblasts; experiment: Cellular reactive oxygen species production (DCFH-DA assay) and oxidant signalling in PGE2-exposed fibroblasts; format: cell-based, human; details: for increase in ROS, and SA β-gal and p21 expression induced by PGE2: 24 h pre-treatment of fibroblasts
Method: as §1
(§3) PGE2 was quantified by using the Prostaglandin E2 monoclonal EIA kit (Bertin Pharma, Montigny le Bretonneux, France). PGE2 receptors and enzymes involved in PGE2 synthesis were quantified by RT-qPCR. Cellular reactive oxygen species production was quantified by the DCFH-DA assay (Carter W et al., J Leukoc Biol 1994; 55:253-258).

[4] = tested on: lung mRNA expression of senescence markers and cytokines; experiment: Intratracheal instillation of PGE2 in mice, lung mRNA expression of senescence markers and cytokines; format: in vivo
Method: Male 8-week-old mice of C57BL/6 background and p53−/− animals (kindly provided by Tyler Jacks, MIT, Cambridge) were intratracheally instilled with either PGE2 (1 ng·ml^−1) or vehicle (DMSO 1/10000). Instilled volume was 50 μl. Twenty-four and 48 h after instillation mice were sacrificed and analysis of lung mRNA expression of senescence markers and cytokines were performed. Studies were conducted in compliance with INSERM guidelines regarding the fair treatment of animals.

[5] = tested on: S-C and COPD fibroblasts; experiment: Replicative senescence of S-C and COPD fibroblasts during successive passages (repeated PGE2 exposure or COX inhibitors); format: cell-based, human
Method: as §1, §2
Finally, the inventors investigated if endogenous PGE2 was involved in replicative senescence.

[6] = tested on: PGE2; experiment: PGE2 quantification in fibroblast culture/conditioned medium (Prostaglandin E2 monoclonal EIA kit); format: cell-based, human; details: for reduction of the levels of PGE2 in CM: treatment of fibroblasts with COX inhibitors
Method: as §1, §3

[7] = tested on: human dermal fibroblasts; details: Yang H H et al., Biogerontology 2011; cited from earlier work
[8] = pre-treatment of target fibroblasts
[9] = COPD fibroblasts, both antagonists (EP2 + EP4) used simultaneously, versus one antagonist
[10] = COPD fibroblasts, one antagonist alone (10 μM), PGE2 10 ng·ml−1
[11] = wild type mice, single intra-tracheal instillation
[12] = repeated exposures to PGE2 at 1 ng·ml−1, passage 3 to 9
[13] = repeated exposures to PGE2 at 1 ng·ml−1, passage 3 to 9, S-C and COPD fibroblasts, greater in COPD

Question: Which results are given for `Cc1ccc(C(=O)Cn2c3c(sc2=N)CCCC3)cc1` [pifithrin-α]?
Answer: PGE2-induced SA β-gal and p21 expression ([1]; COPD and control fibroblasts): completely prevented; increase in IL6, CX3CL1, MMP-2 and TIMP-2 levels induced by PGE2 ([1]; control and COPD fibroblasts): completely prevented; increase in p16 induced by PGE2 ([1]; control and COPD fibroblasts): without modification; increase in FGF-2 mRNA expression induced by CM [2, 8]: not modified; increase in IL-6, IL-8 and MCP-1 mRNA expression induced by CM [2, 8]: suppressed; increase in SA β-gal positive cells and induction of p21 protein by S-C and COPD senescent CM [2, 8]: suppressed

Question: For `CCOc1c2c(c(OCC)c3ccccc13)C(=O)N(c1ccc(CC(=O)NS(=O)(=O)c3ccccc3)cc1)C2` [GW627368X], which “PGE2-induced SA β-gal and p21 expression” value [1, 9] is on record?
Answer: small but significant higher effect

Question: What about the “PGE2-induced SA β-gal and p21 expression” value [1, 10] of the same molecule?
Answer: significantly reduced

Question: What about the “PGE2-induced SA-β gal and p21 expression” value ([1]; PGE2 10 ng·ml−1) of the same molecule?
Answer: only the simultaneous application of both antagonists decreased

Question: And the “increase in IL-6, CX3CL1, FGF2, VEGF, MMP2 and TIMP2 induced by PGE2” value [1]?
Answer: both antagonists were needed to suppress

Question: What does the source list for `CCCCC[C@H](O)/C=C/[C@H]1[C@H](O)CC(=O)[C@@H]1C/C=C\CCCC(=O)O` [PGE2, prostaglandin E2]?
Answer: activation of the DNA damage-activated transcription factor ATM ([3]; PGE2-exposed COPD cells, single exposure): No activation; concentration of intracellular ROS and expression of the oxidant-sensitive protein HO-1 ([3]; fibroblasts incubated with PGE2): increased in a dose-dependent manner only in fibroblasts from COPD patients; COX2 mRNA levels ([4]; mice, at 48 h): increased; induction of p21 and inflammatory mediators ([4]; p53−/− mice): not observed; p16 expression in lung [4, 11]: no change; pulmonary expression of inflammatory mediators (IL-6, CX3CL1, FGF2, VEGF, MMP2) [4, 11]: induced; pulmonary expression of p53 and p21 ([4]; wild type mice, single intra-tracheal instillation, at 24 h and 48 h respectively): induced; expression of phosphorylated-ATM ([5]; COPD fibroblasts, repeated exposure to PGE2): enhanced; expression of MCP3 [5, 12]: not modified; reduction in telomeres length [5, 12]: did not modify; induction of SA-β gal, p21, p16, COX2 and HO-1 expression, and levels of IL-6, IL-8, GRO, VEGF and CX3CL [5, 13]: enhanced; senescence-associated cumulative PDL [5, 13]: further reduced; cleaved caspase-3 (and phosphatidyl serine residues) ([1]; fibroblasts of the three groups of patients after PGE2): absence; percentage of cells expressing SA β-gal, p21 and p16 protein ([1]; non-senescent NS-C, S-C and COPD fibroblasts, 24 h incubation with PGE2 (0.5 to 50 ng ml−1), higher in COPD): dose-response increase; levels of IL-6, CX3CL1, VEGF, FGF2, MMP-2 and TIMP-2 in cell culture supernatant ([1]; non-senescent fibroblasts, 24 h incubation with PGE2, higher in COPD): increase; synthesis of endogenous PGE2 ([6]; fibroblasts exposed to exogenous PGE2): induced; concentration from which the effect of PGE2 (aggravated replicative senescence) was observed [7]: ≥ 5 µM

Question: What does the source list for `CC(C)Oc1ccc2c(=O)c3cc(C(=O)O)ccc3oc2c1` [AH6809]?
Answer: PGE2-induced SA β-gal and p21 expression [1, 9]: small but significant higher effect; PGE2-induced SA β-gal and p21 expression [1, 10]: significantly reduced; PGE2-induced SA-β gal and p21 expression ([1]; PGE2 10 ng·ml−1): only the simultaneous application of both antagonists decreased; increase in IL-6, CX3CL1, FGF2, VEGF, MMP2 and TIMP2 induced by PGE2 [1]: both antagonists were needed to suppress

Question: Which “increase in ROS, and SA β-gal and p21 expression induced by PGE2” value [3] does the source give for `CC(=O)N[C@@H](CS)C(=O)O` [N-acetyl-cysteine] here?
Answer: significantly reduced

Question: With `COc1ccc2c(c1)c(CC(=O)O)c(C)n2C(=O)c1ccc(Cl)cc1` [indomethacin] as the molecule, how does the “increase in ROS, and SA β-gal and p21 expression induced by PGE2” value [3] read?
Answer: significantly reduced

Question: And the “reduction of the levels of PGE2 in CM” value [6]?
Answer: 60%

Question: And the “percentage of SA β-gal positive cells and p21 protein expression” value ([2]; target cells incubated with CM from fibroblasts treated with COX inhibitor)?
Answer: parallel significant reduction

Question: For `Cc1ccc(-c2cc(C(F)(F)F)nn2-c2ccc(S(N)(=O)=O)cc2)cc1` [celecoxib], which “reduction of the levels of PGE2 in CM” value [6] is on record?
Answer: 60%

Question: Which results are given for `O=C1CC[C@H](/C=C/[C@@H](O)Cc2ccccc2)N1CCCCCCc1nn[nH]n1` [CAY10598]?
Answer: SA β-gal and p21 expression (agonists, no PGE2) ([1]; COPD and control fibroblasts, both agonists (EP2 + EP4) used simultaneously, versus one agonist): small but significant higher effect; SA β-gal and p21 expression (agonist alone, no PGE2) ([1]; COPD and control fibroblasts, one agonist): mimicked PGE2 effects

Reference: US20150126573A1, “METHODS AND PHARMACEUTICAL COMPOSITIONS FOR PREVENTION OR TREATMENT OF CHRONIC OBSTRUCTIVE PULMONARY DISEASE” (INSERM (INSTITUT NATIONAL DE LA SANTE ET DE LA RECHERCHE …, priority 2012, published 2015)
